Laboratory results as given in US20030013660A1, “Dioxolane analogs for improved inter-cellular delivery” (Shire BioChem Inc., priority 2000, published 2003).
“And” between values parts separate entries of the source, which are not always exact repeats. Equal entries are not always repeated. Each block holds one compound with its values, some of them ahead of it.

How the values were obtained:
CEM/dCK- [1] = assay: MTT or WST-1 assay at 72 hr (24 hr drug exposure, wash, 48 hr); assay type: cell-based; settings: for Resistance Factor*: single experiment
Description: (§1) Exposition of 24hr to drug, washed, and incubated for another 48hr (total of 72hr assay)

CCRF-CEM [2] = assay: as above; assay type: cell-based
Description: as §1

CEM/dCK- [3] = assay: 3H-TdR incorporation at 72 hr (24 hr drug exposure, wash, 48 hr); assay type: cell-based; settings: Homo sapiens, CCRF-CEM, read-out: IC50 in μM (3H-TdR incorporation at 72 hr) CEM/dCK- 24 h, CCRF-CEM deoxycytidine kinase-deficient; 24 h drug exposure, 72 hr assay
Description: (§2) Exposition of 24 hr to drug, wash, incubated for another 48 hr (total of 72 hr assay)
(§3) (3H-Thymidine Incorporation Assay)

SF-268 [4] = assay: MTT assay at 72 hr (24 hr drug exposure, wash, 48 hr); assay type: cell-based
Description: as §1

H-460 [5] = assay: as above; assay type: cell-based
Description: as §1

MCF-7 [6] = assay: as above; assay type: cell-based; settings: Homo sapiens
Description: as §1

SF-268 [7] = assay: 3H-TdR incorporation at 72 hr (24 hr drug exposure, wash, 48 hr); assay type: cell-based, Human; settings: Homo sapiens, SF-268, read-out: IC50 in μM (3H-TdR incorporation at 72 hr) SF-268 24 h, SF-268 Human Central Nervous System Tumor; 24 h drug exposure, 72 hr assay
Description: as §2, §3

H-460 [8] = assay: as above; assay type: cell-based, Human; settings: Homo sapiens, NCI-H460, read-out: IC50 in μM (3H-TdR incorporation at 72 hr) H-460 24 h, H-460 Human Lung Carcinoma, 72 hr assay
Description: as §2, §3

MCF-7 [9] = assay: as above; assay type: cell-based, Human; settings: Homo sapiens, MCF7, read-out: IC50 in μM (3H-TdR incorporation at 72 hr) MCF-7 24 h, MCF-7 Human Breast Carcinoma, 72 hr assay
Description: as §2, §3

SF-268 [10] = assay: 3H-TdR (3H-thymidine) incorporation assay at 72 hr; assay type: cell-based, Human
CEM/dCK- [11] = assay: 3H-TdR (3H-thymidine) incorporation assay at 72 hr; assay type: cell-based
Description: (§4) Table of IC50 Values (μM) for Controls
as §2, §3

CCRF-CEM [12] = assay: 3H-TdR (3H-thymidine) incorporation assay at 72 hr; assay type: cell-based
Description: as §4, §2, §3

H-460 [13] = assay: 3H-TdR (3H-thymidine) incorporation assay at 72 hr; assay type: cell-based, Human; settings: Homo sapiens
MCF-7 [14] = assay: 3H-TdR (3H-thymidine) incorporation assay at 72 hr; assay type: cell-based, Human; settings: Homo sapiens
[15] = read-out: IC50 CEM/dCK- 24 h, MMT or WST-1 at 72 hr, 24 h exposure, single experiment
[16] = Homo sapiens, CCRF-CEM, read-out: IC50 CCRF-CEM 24 h, MMT or WST-1 at 72 hr, 24 h exposure, single experiment
[17] = Homo sapiens, SF-268, read-out: IC50 SF-268 24 h, MTT at 72 hr, 24 h exposure, single experiment
[18] = Homo sapiens, NCI-H460, read-out: IC50 H-460 24 h, MTT at 72 hr, 24 h exposure, single experiment
[19] = MCF7, read-out: IC50 MCF-7 24 h, MTT at 72 hr, 24 h exposure, single experiment

IC50 (CCRF-CEM [2]; [16]): 340 nM | IC50 (CEM/dCK- [3]): 14 µM | IC50 (MCF-7 [6]; [19]): 9.4 nM | IC50 (SF-268 [7]): 0.018 µM | IC50 (H-460 [8]): 0.00088 µM | IC50 (MCF-7 [9]): ≤ 0.0001 µM
SMILES: CCCCCCCC/C=C/CCCCCCCC(=O)Nc1ccn([C@@H]2CO[C@H](CO)O2)c(=O)n1 (stereo in doubt) [Compound 216, Octadec-9-enoic acid [1-(2-hydroxymethyl-[1,3]dioxolan-4-yl)-2-oxo-1,2-dihydro-pyrimidin-4-yl]-amide]
Resistance Factor* (CEM/dCK- [1]; CEM/dCK- versus CCRF-CEM): 91 | IC50 (CEM/dCK- [1]; [15]): 31000 nM | IC50 (SF-268 [4]; [17]): 400 nM | IC50 (H-460 [5]; [18]): 64 nM

IC50 (CCRF-CEM [2]; Homo sapiens, CCRF-CEM, read-out: IC50 CCRF-CEM 24 h, Average, MMT or WST-1 at 72 hr, Average of the experiments): 380 ± 280 nM | IC50 (CCRF-CEM [2]; read-out: IC50 CCRF-CEM 24 h, MMT or WST-1 at 72 hr, 24 h exposure, single experiment): 210 nM and 140 nM | IC50 (SF-268 [10]; Homo sapiens, SF-268, 24 h, read-out: IC50 SF-268 24 h, Average, Average ± spread of the repeat determinations, 24 h exposure): 440 nM | IC50 (SF-268 [10]; Homo sapiens, SF-268, read-out: IC50 SF-268 (72 h), 72 h exposure, 3H-TdR incorporation at 72 hr): 96 nM | IC50 (SF-268 [10]; read-out: IC50 SF-268 24 h, 24 h drug exposure, wash, another 48 hr, 3H-TdR incorporation at 72 hr): 330 nM and 660 nM | IC50 (CEM/dCK- [11]; 24 h, read-out: IC50 CEM/dCK- 24 h, Average, Average ± spread of the repeat determinations, 24 h exposure): > 100000 nM | IC50 (CEM/dCK- [11]; Homo sapiens, CCRF-CEM, read-out: IC50 CEM/dCK- 24 h, 24 h drug exposure, wash, another 48 hr, deoxycytidine kinase-deficient CCRF-CEM): > 100000 nM | IC50 (CEM/dCK- [11]; read-out: IC50 CEM/dCK- 24 h, 24 h drug exposure, wash, another 48 hr, deoxycytidine kinase-deficient CCRF-CEM): 56000 nM | IC50 (CCRF-CEM [12]; Homo sapiens, CCRF-CEM, 24 h, read-out: IC50 CCRF-CEM 24 h, Average, Average ± spread of the repeat determinations, 24 h exposure): 78 nM | IC50 (CCRF-CEM [12]; read-out: IC50 CCRF-CEM 24 h, 24 h drug exposure, wash, another 48 hr, 3H-TdR incorporation at 72 hr): 100 nM | IC50 (H-460 [13]; NCI-H460, 24 h, read-out: IC50 H-460 24 h, Average, Average ± spread of the repeat determinations, 24 h exposure): 120 nM | IC50 (H-460 [13]; NCI-H460, read-out: IC50 H-460 (72 h), 72 h exposure, 3H-TdR incorporation at 72 hr): 40 nM | IC50 (MCF-7 [6]; MCF7, read-out: IC50 MCF-7 24 h, Average, MTT at 72 hr, Average of the experiments): 2000 ± 2400 nM | IC50 (MCF-7 [14]; MCF7, 24 h, read-out: IC50 MCF-7 24 h, Average, Average ± spread of the repeat determinations, 24 h exposure): 180 nM | IC50 (MCF-7 [14]; MCF7, read-out: IC50 MCF-7 (72 h), 72 h exposure, 3H-TdR incorporation at 72 hr): 66 nM
SMILES: Nc1ccn([C@@H]2CO[C@H](CO)O2)c(=O)n1 [BCH-4556]
Resistance Factor*, Average (CEM/dCK- [1]; CEM/dCK- versus CCRF-CEM, Average of the experiments): 349 ± 283 | IC50 (CEM/dCK- [1]; read-out: IC50 CEM/dCK- 24 h, Average, MMT or WST-1 at 72 hr, Average of the experiments): > 100000 nM | Factor* (Resistance Factor), Average (CEM/dCK- [11]; Average ± spread of the ratios dCK- on wild-type CCRF-CEM): 1792 ± 1584 | IC50 (SF-268 [4]; Homo sapiens, SF-268, read-out: IC50 SF-268 24 h, Average, MTT at 72 hr, Average of the experiments): 29000 ± 23000 nM | IC50 (SF-268 [4]; read-out: IC50 SF-268 24 h, MTT at 72 hr, 24 h exposure, single experiment): 16000 nM | IC50 (H-460 [5]; Homo sapiens, NCI-H460, read-out: IC50 H-460 24 h, Average, MTT at 72 hr, Average of the experiments): 1600 ± 1600 nM | IC50 (H-460 [5]; read-out: IC50 H-460 24 h, MTT at 72 hr, 24 h exposure, single experiment): 780 nM

IC50 (CCRF-CEM [2]; [16]): 360 nM | IC50 (CEM/dCK- [3]): 1.2 µM | IC50 (MCF-7 [6]; [19]): 3.9 nM | IC50 (SF-268 [7]): 0.00013 µM | IC50 (H-460 [8]): ≤ 0.0001 µM | IC50 (MCF-7 [9]): ≤ 0.0001 µM
SMILES: CCCCC/C=C\C/C=C\CCCCCCCC(=O)Nc1ccn([C@@H]2CO[C@H](CO)O2)c(=O)n1 [Compound 217, OCTADECA-9,12-DIENOIC ACID [1-(2- HYDROXYMETHYL- [1,3]DIOXOLAN-4-YL)-2- OXO-1,2-DIHYDRO- PYRIMIDIN-4-YL]-AMIDE]
Resistance Factor* (CEM/dCK- [1]; CEM/dCK- versus CCRF-CEM): 75 | IC50 (CEM/dCK- [1]; [15]): 27000 nM | IC50 (SF-268 [4]; [17]): 120 nM | IC50 (H-460 [5]; [18]): 11 nM
